Assay results published in patent US8822513B2, “Compounds for treatment of cancer” (GTX, Inc., priority 2010, dated 2014).
Where two headings read alike, the source gives them in different places.

Columns and labels:
[1] = tested on: tubulin (colchicine, vinblastine, paclitaxel binding sites); assay: MS competitive binding assay
Source text: Each reaction was run in triplicate.

[2] = Rotarod test (in vivo neurotoxicity); parameters: species or system mouse; conditions: ICR mice; 1h 5 or 15 mg/kg, vinblastine 0.5 mg/kg, i.p. daily
Method: ICR mice received training three times a day for two days to enable them to stay on the rotating rod for >120 seconds at 12 rpm. Mice were then randomized by the length of time that they could stay on the rotating rod and divided into 7-8 mice per group. […] The rotarod test was performed twice a week. […] The rod speed was increased from […] to 40 rpm over a period of 5 min. Performance was measured as the length of time that a mouse could stay on the rotating rod.

[3] = Metabolic stability in human liver microsomes; conditions: for Half life in Human liver microsome: Table 20
[4] = tested on: Bovine brain tubulin; assay: In vitro tubulin polymerization assay (bovine brain tubulin); assay type: biochemical
Method: The spectrophotometer was maintained at 37° C. for tubulin polymerization.

[5] = tested on: A375 melanoma xenografts; assay: In vivo efficacy, A375 melanoma xenograft in nude mice (SMART compounds); parameters: species or system mouse; conditions: 15 mg/kg i.p.
[6] = ICR mice, 4 consecutive days i.p.
[7] = tested on: PC-3/TxR cells; assay: SRB cytotoxicity assay, paclitaxel-resistant PC-3/TxR; conditions: Table 15; data in parentheses; IC50 values in PC-3 and PC-3/TxR compared
[8] = tested on: B16-F1 melanoma cells; assay: SRB cytotoxicity assay, B16-F1; assay type: cell-based, mouse
[9] = tested on: PC-3/TxR cells
[10] = tested on: PPC-1 cells
Source text: (§1) Cells were stained with SRB solution.

[11] = tested on: PC-3 cells
Source text: as §1
Cells were stained with sulphorhodamine B (SRB) solution.

[12] = tested on: B16-F1 melanoma tumors; assay: In vivo efficacy, B16-F1 melanoma in C57/BL mice; parameters: species or system mouse; conditions: 60 mg/kg i.p. daily, 14 days
Method: Female C57/BL mice, age 4-6 weeks, were purchased from Harlan Laboratories (Harlan Laboratories Inc., Indianapolis, Ind.). The animal housing met the Association for Assessment and Accreditation and Laboratory Animal Care specifications. All of the procedures were conducted in accordance with guidelines of our Institutional Animal Care and Use Committee.
Tumor volume was expressed in cubic millimeters.

[13] = Metabolic stability in dog liver microsomes; assay type: in vitro ADME; conditions: Table 20
[14] = Metabolic stability in monkey liver microsomes; assay type: in vitro ADME; conditions: Table 20
[15] = Metabolic stability in rat liver microsomes; assay type: in vitro ADME; conditions: Table 20
[16] = Metabolic stability in mouse liver microsomes; assay type: in vitro ADME; conditions: Table 20
[17] = tested on: prostate cancer cell lines (LNCaP, PC-3, DU-145, PPC-1); assay: SRB cytotoxicity, prostate cancer cell lines (panel statements); conditions: Homo sapiens, read-out: IC50 against prostate cancer cells
[18] = tested on: NCI/ADR-RES cells; assay: SRB cytotoxicity assay, NCI/ADR-RES (P-gp over-expressing); assay type: cell-based; conditions: Homo sapiens
[19] = tested on: DU 145 cells; assay: SRB cytotoxicity assay, DU 145; assay type: cell-based, human; conditions: Table 12; 96 h; read-out: IC50 ± SEM Du 145
Source text: as §1

[20] = tested on: LNCaP cells; assay: SRB cytotoxicity assay, LNCaP; assay type: cell-based, human; conditions: Table 12; 96 h; read-out: IC50 ± SEM LNCaP
Source text: as §1

[21] = tested on: A375 melanoma cells; assay: SRB cytotoxicity assay, A375; assay type: cell-based, human; conditions: Table 12; 48 h; read-out: IC50 ± SEM A375
[22] = tested on: WM-164 melanoma cells; assay: SRB cytotoxicity assay, WM-164; assay type: cell-based, human; conditions: Table 12; 48 h; read-out: IC50 ± SEM WM164
[23] = Pharmacokinetic study in ICR mice; conditions: 15 mg/kg i.v.
[24] = tested on: three melanoma cell lines and four human prostate cancer cell lines; assay: SRB cytotoxicity, melanoma and prostate cancer cell lines (ranges and averages over the panel); assay type: cell-based; conditions: Homo sapiens; text on Tables 2, 3, 12, 21; read-out: IC50 (range over cell lines)
[25] = Aqueous solubility, Multiscreen Solubility Filter Plate, PBS pH 7.4; assay type: physicochemical; conditions: HCl salt, vs 1h
[26] = tested on: PC-3 cells; assay: Apoptosis detection by ELISA (cytoplasmic DNA-histone complexes), PC-3; assay type: cell-based, human; conditions: PC-3 and A375 cells, 24 h
Source text: The levels of DNA-histone complexes were used to represent cell apoptosis.
Quantification of the enrichment of mono- and oligonucleosomes in the cytoplasm was used to determine the ability of the compounds to induce apoptosis (cell death detection ELISA PLUS, Roche, Germany) following the manufacturer's instructions.

[27] = tested on: PC-3 xenografts; assay: In vivo efficacy, PC-3 prostate tumor xenograft in nude mice; conditions: 50 mg/kg i.p.
[28] = Pharmacokinetic study in Sprague-Dawley rats; conditions: rat
[29] = Table 12, 48 h, read-out: IC50 ± SEM B16-F1

## CC[C@]1(O)C[C@@H]2CN(CCc3c([nH]c4ccccc34)[C@@](C(=O)OC)(c3cc4c(cc3OC)N(C)[C@H]3[C@@](O)(C(=O)OC)[C@H](OC(C)=O)[C@]5(CC)C=CCN6CC[C@]43[C@@H]65)C2)C1 [Vinblastine, vinblastine, reference compound]
[1]
  competition with colchicine-tubulin binding: did not inhibit the colchicine-tubulin binding
[2]
  time on the rotating rod vs vehicle group: gradually reduced the time

## COc1cc(C(=O)c2csc(-c3ccccc3)n2)cc(OC)c1OC [1h, (2-Phenyl-thiazol-4-yl)-(3,4,5-trimethoxy-phenyl)-methanone]
[3]; Table 16B, Phase I + II (UDP-glucuronic acid present)
  Half-life in HLM (Phase I + II): 17 min
[3]
  Half life in Human liver microsome: 17 min
[1]
  competition with colchicine-tubulin binding: specifically competed with colchicine binding to tubulin
[4]; 10 μM (Example 22)
  inhibition of tubulin polymerization: 90%
[4]; 10 μM, after 20 min, vs vehicle
  inhibition of tubulin polymerization: 47%
[2]
  time on the rotating rod vs vehicle group: no significant difference

## COc1cc(C(=O)c2csc(-c3ccc(F)cc3)n2)cc(OC)c1OC [2k]
[5]
  % T/C: 29%
[6]
  dose not causing greater than 10% loss of body weight: ≤ 15 mg/kg
[4]; 10 μM (Example 22)
  inhibition of tubulin polymerization: 90%

## COc1cc(C(=O)c2cn(S(=O)(=O)c3ccccc3)c(-c3cn(S(=O)(=O)c4ccccc4)c4ccccc34)n2)cc(OC)c1OC [17yaa, (1-(phenylsulfonyl)-2-(1-(phenylsulfonyl)-1H-indol-3-yl)-1H-imidazol-4-yl)(3,4,5-trimethoxyphenyl)methanone]
[7]
  Resistance factor PC-3/TxR vs PC-3: 0.4
[8]; Table 6A, read-out: IC50 B16-F1
  IC50: 538 nM
[9]
  IC50: 2.1 ± 0.1 nM
[10]
  IC50: 21 ± 0.1 nM
[11]
  IC50: 5.2 ± 0.2 nM

## CN(C)/N=N/c1[nH]cnc1C(N)=O [DTIC]
[12]
  tumor volume reduction: 51%

## Fc1ccc(-c2nccc3ccc(-c4ccc5[nH]ccc5c4)cc23)cc1 [6c, 1-(4-Fluoro-phenyl)-7-(1H-indol-5-yl)-isoquinoline]
[13]
  Half life in Dog liver microsome: 29 min
[3]
  Half life in Human liver microsome: 47 min
[14]
  Half life in Monkey liver microsome: 9 min
[15]
  Half life in Rat liver microsome: 14 min
[16]
  Half life in Mouse liver microsome: 13 min

## COc1cc(C(=O)c2cccc(-c3ccccc3)n2)cc(OC)c1OC [1c, (6-Phenylpyridin-2-yl)(3,4,5-trimethoxyphenyl)methanone]
[17]
  IC50: 12 to 35 nM

## COc1cc(C(=O)c2c[nH]c(-c3ccc(Cl)cc3)n2)cc(OC)c1OC [12fa, (2-(4-chlorophenyl)-1H-imidazol-4-yl)(3,4,5-trimethoxyphenyl)methanone]
[18]; Table 12, read-out: IC50 ± SEM NCl/ADR-RES
  IC50: 19 nM
[3]; Table 16B, Phase I
  Half-life in HLM (Phase I): 44 min

## O=C(c1ccc(F)cc1)c1c[nH]c(-c2ccc(O)cc2)n1 [12kb]
[19]
  IC50: > 10000 nM
[8]; [29]
  IC50: > 10000 nM
[10]; read-out: IC50 ± SEM PPC-1, Table 12, 96 h
  IC50: > 10000 nM
[20]
  IC50: > 10000 nM
[21]
  IC50: 10000 nM
[11]; read-out: IC50 ± SEM PC-3, Table 12, 96 h
  IC50: > 10000 nM
[22]
  IC50: > 10000 nM

## c1cc2ccc(-c3ccc4[nH]ccc4c3)cc2c(-c2ccc3[nH]ccc3c2)n1 [6b, 1,7-Bis-(1H-indol-5-yl)-isoquinoline]
[13]
  Half life in Dog liver microsome: 30 min
[3]
  Half life in Human liver microsome: 40 min
[14]
  Half life in Monkey liver microsome: 13 min
[15]
  Half life in Rat liver microsome: 9 min
[16]
  Half life in Mouse liver microsome: 10 min

## O=C(c1cc(O)c(O)c(O)c1)c1c[nH]c(-c2ccc(O)c(O)c2)n1 [13ha]
[8]; [29]
  IC50: > 10000 nM
[21]
  IC50: > 10000 nM
[22]
  IC50: > 10000 nM

## COc1cc(C(=O)c2csc(-c3ccc(F)cc3)n2)cc(OC)c1OC [SMART-F]
[5]; Melanoma (A375) xenograft
  T-C: 11 days
[23]; mice
  AUC: 2100 ng·h/mL

## COc1cc(C(=O)c2csc(-c3ccc(CN)cc3)n2)cc(OC)c1OC.Cl [2r, (2-(4-(Aminomethyl)phenyl)thiazol-4-yl)(3,4,5-trimethoxyphenyl)methanone hydrochloride]
[18]; Table 5A, P-gp over-expressed, read-out: IC50 NCI/ADR-RES
  IC50: 11 ± 2 nM
[24]
  IC50: 13 to 80 nM
[25]
  increase of solubility: over 35 fold

## O=C(c1ccc2[nH]ccc2c1)c1csc(-c2cc3ccccc3[nH]2)n1 [compound 21, (2-(1H-indol-2-yl)thiazol-4-yl)(1H-indol-5-yl)methanone]
[24]
  IC50: 76 to 116 nM
[23]; ICR mice
  times higher Vss than 1h and 2k: 2-3 times

## COc1cc(C(=O)c2csc(-c3ccc(O)cc3)n2)cc(OC)c1OC [2l, (2-(4-Hydroxyphenyl)thiazol-4-yl)(3,4,5-trimethoxyphenyl)methanone]
[26]
  concentration inducing apoptosis: greater than or equal to 200 nM
[27]
  % T/C: 34%
[4]; 10 μM (Example 22)
  inhibition of tubulin polymerization: 55%

## COc1cc(C(=O)c2csc(Nc3ccc(F)cc3)n2)cc(OC)c1OC.Cl [5Hc, (2-(p-Fluorophenylamino)thiazol-4-yl)(3,4,5-trimethoxyphenyl)methanone hydrochloride salt]
[28]
  increased exposure (AUC) by the oral route compared to 1h: more than 4.3 fold
